Data taken from article PMC11178545, “Alkynyl nicotinamides show antileukemic activity in drug-resistant acute myeloid leukemia” (The Journal of Clinical Investigation, 2024).
“And” between values parts separate entries of the source, which are not always exact repeats. Equal values may be shown once. Read-outs that look alike come from different tables or passages of the source.

Columns and labels:
[1] = system: BaF3 cells expressing FLT3ITD; experiment: BaF3 proliferation, colorimetric WST-1 assay; assay type: cell-based, murine; conditions: for proliferation, colorimetric assay: BaF3/FLT3 ITD, 48 hours, replicates; for IC50: Mus musculus
[2] = system: BaF3 cells expressing FLT3ITD-D835Y; experiment: BaF3 proliferation, colorimetric WST-1 assay; conditions: for proliferation, colorimetric assay: BaF3/FLT3 ITD-D835Y, 48 hours, replicates; for IC50: Mus musculus, BaF3, read-out: IC50, growth inhibition
[3] = system: BaF3 cells transduced with Flt3ITD/ITD, with IL3; experiment: BaF3 Flt3ITD/ITD proliferation in the presence of IL3 (Supplementary Figure 3A); conditions: replicates
[4] = concentration 0.08 (unit not given), listed as Midostuarin
[5] = concentration 0.4 (unit not given), listed as Midostuarin
[6] = concentration 2 (unit not given), listed as Midostuarin
[7] = concentration 10 (unit not given), listed as Midostuarin
[8] = concentration 50 (unit not given), listed as Midostuarin
[9] = concentration 250 (unit not given), listed as Midostuarin
[10] = concentration 0.016 (unit not given)
[11] = concentration 1000 (unit not given), listed as Midostuarin
[12] = concentration 0.4 (unit not given)
[13] = concentration 0.08 (unit not given)
[14] = concentration 2 (unit not given)
[15] = concentration 10 (unit not given)
[16] = concentration 50 (unit not given)
[17] = concentration 250 (unit not given)
[18] = concentration 1000 (unit not given)
[19] = concentration 5000 (unit not given)

Compound	proliferation, colorimetric assay [2, 10]	Supplementary Figure 3A - BaF3-ITD+IL3 proliferation [3, 10]	Supplementary Figure 3A - BaF3-ITD+IL3 proliferation [3, 12]	proliferation, colorimetric assay [1, 10]	proliferation, colorimetric assay [1, 13]	proliferation, colorimetric assay [1, 12]	proliferation, colorimetric assay [1, 14]	proliferation, colorimetric assay [1, 15]	proliferation, colorimetric assay [1, 16]	proliferation, colorimetric assay [1, 17]	proliferation, colorimetric assay [2, 13]	proliferation, colorimetric assay [2, 12]	proliferation, colorimetric assay [2, 14]	proliferation, colorimetric assay [2, 15]	proliferation, colorimetric assay [2, 16]	proliferation, colorimetric assay [2, 17]	proliferation, colorimetric assay [2, 18]	IC50 [2] [nM]	Supplementary Figure 3A - BaF3-ITD+IL3 proliferation [3, 13]	Supplementary Figure 3A - BaF3-ITD+IL3 proliferation [3, 14]	further results
CO[C@@H]1[C@H](N(C)C(=O)c2ccccc2)C[C@H]2O[C@]1(C)n1c3ccccc3c3c4c(c5c6ccccc6n2c5c31)C(=O)NC4 [Midostaurin]	103.305	91.5686	100.9	–	–	–	–	–	–	–	–	–	–	–	–	–	–	–	–	–	proliferation, colorimetric assay ([1]; concentration 0.016 (unit not given), listed as Midostuarin): 100.822 and 110.628 and 104.388; proliferation, colorimetric assay [1, 4]: 99.3158 and 113.294 and 110.094 and 38.1922; proliferation, colorimetric assay [1, 5]: 103.096 and 110.499 and 104.386 and 61.929; proliferation, colorimetric assay [1, 6]: 104.186 and 115.142 and 102.467 and 142.341; proliferation, colorimetric assay [1, 7]: 37.6324 and 34.6342 and 45.0183 and 96.6129; proliferation, colorimetric assay [1, 8]: 6.377 and 12.3055 and 3.243 and 9.898; proliferation, colorimetric assay [1, 9]: 0.5457 and 1.807 and -0.6585 and 0.387; proliferation, colorimetric assay [2, 4]: 108.476 and 93.9081; proliferation, colorimetric assay [2, 5]: 108.102 and 98.6805 and 100.719; proliferation, colorimetric assay [2, 6]: 111.763 and 100.839 and 106.043; proliferation, colorimetric assay [2, 7]: 46.6696 and 71.6598 and 33.3064; proliferation, colorimetric assay [2, 8]: 14.4574 and 14.3192 and 6.786; proliferation, colorimetric assay [2, 9]: 11.4376 and 9.499 and 3.744; proliferation, colorimetric assay [2, 11]: 3.105 and 1.155; Supplementary Figure 3A - BaF3-ITD+IL3 proliferation [3, 6]: 105.72 and 98.3726 and 124.683; Supplementary Figure 3A - BaF3-ITD+IL3 proliferation [3, 7]: 110.807 and 113.1 and 132.819; Supplementary Figure 3A - BaF3-ITD+IL3 proliferation [3, 8]: 106.186 and 111.038 and 133.216; Supplementary Figure 3A - BaF3-ITD+IL3 proliferation [3, 9]: 110.669 and 139.596; Supplementary Figure 3A - BaF3-ITD+IL3 proliferation [3, 11]: 9.826 and 146.156; Supplementary Figure 3A - BaF3-ITD+IL3 proliferation ([3]; concentration 5000 (unit not given), listed as Midostuarin): 3.94 and -0.5106
Cc1ccc(C(=O)Nc2ccc(CN3CCN(C)CC3)c(C(F)(F)F)c2)cc1C#Cc1cnc2cccnn12 [Ponatinib]	105.632	100.2	94.562	103.303 and 29.4843 and 104.802 and 107.771	103.551 and 112.425 and 114.204	63.9851 and 109.481 and 101.917	12.349 and 96.4027 and 63.939 and 105.862	7.628 and 22.9278 and 11.2521 and 38.4511	2.92 and 5.376 and 0.7258 and 6.47	5.173 and 2.723 and -0.4582 and 0.3438	110.397 and 108.415 and 100.457	112.735 and 103.362 and 108.642	92.8711 and 101.44 and 100.79	111.954 and 107.659	78.5183 and 101.652 and 95.7414	19.3842 and 49.6264 and 16.1584	2.173 and 0.6094	162	100.413	103.021 and 110.146 and 131.879	IC50 ([1]; BaF3, read-out: IC50, growth inhibition): 2.54 nM; Supplementary Figure 3A - BaF3-ITD+IL3 proliferation [3, 15]: 104.504 and 106.518 and 133.143; Supplementary Figure 3A - BaF3-ITD+IL3 proliferation [3, 16]: 106.029 and 102.109 and 134.35; Supplementary Figure 3A - BaF3-ITD+IL3 proliferation [3, 17]: 109.055 and 106.007 and 134.452; Supplementary Figure 3A - BaF3-ITD+IL3 proliferation [3, 18]: 75.4094 and 10.3894; Supplementary Figure 3A - BaF3-ITD+IL3 proliferation [3, 19]: 0.9902 and -0.5808
CNC(=O)c1cc(Oc2ccc(NC(=O)Nc3ccc(Cl)c(C(F)(F)F)c3)cc2)ccn1 [Sorafenib]	94.7245	102.183	106.455	16.3815 and 107.167 and 106.617 and 105.393	11.5881 and 112.929 and 104.573 and 131.213	10.6541 and 113.594 and 9.4402 and 110.22	98.6784 and 107.329 and 5.2213 and 125.689	18.373 and 31.6289 and 5.419 and 106.507	7.163 and 11.5817 and 3.098 and 23.7431	5.383 and 5.798 and 3.082 and 8.355	78.2586 and 100.59 and 93.5618	71.3463 and 101.258 and 87.9764	114.498 and 101.128 and 64.2837	112.637 and 109.063 and 80.4355	116.564 and 100.156 and 98.1229	119.18 and 103.897 and 90.2769	83.0213 and 52.2833	1100	99.8176	107.595 and 105.229 and 115.278	IC50 ([1]; BaF3 FLT3ITD, read-out: IC50, growth inhibition): 0.9 nM; Supplementary Figure 3A - BaF3-ITD+IL3 proliferation [3, 15]: 111.02 and 105.412 and 136.419; Supplementary Figure 3A - BaF3-ITD+IL3 proliferation [3, 16]: 101.081 and 115.196 and 123.039; Supplementary Figure 3A - BaF3-ITD+IL3 proliferation [3, 17]: 102.541 and 117.007 and 139.808; Supplementary Figure 3A - BaF3-ITD+IL3 proliferation [3, 18]: 122.84 and 135.916; Supplementary Figure 3A - BaF3-ITD+IL3 proliferation [3, 19]: 77.5171 and 4.823
